# Test results taken from patent US7964607B2, “Pyrazolo[3,4-d]pyrimidine compounds” (Pfizer Inc., priority 2007, dated 2011).
# pIC50: −log10 of the molar value.
# Molecular target: T1, human recombinant PDE9 enzyme (Homo sapiens, UniProt O76083)
# T1 construct: made in house; host or cells: SF-9 insect cells
# Assay: Phosphodiesterase 9 (PDE9) inhibitory activity, Scintillation Proximity (SPA) assay
# Format: biochemical
# Details: not given
# How it was run: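 Scintillation proximity read-out of [3H]cGMP hydrolysis after 30 min at room temperature, with enzyme addition starting the reaction. The enzyme was human recombinant PDE9 expressed in SF-9 cells, titrated to keep substrate turnover at 20% or less. Compound wells held 2% DMSO final, and background was defined with excess PDE inhibitor.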
# T1 sequence (O76083 whole entry): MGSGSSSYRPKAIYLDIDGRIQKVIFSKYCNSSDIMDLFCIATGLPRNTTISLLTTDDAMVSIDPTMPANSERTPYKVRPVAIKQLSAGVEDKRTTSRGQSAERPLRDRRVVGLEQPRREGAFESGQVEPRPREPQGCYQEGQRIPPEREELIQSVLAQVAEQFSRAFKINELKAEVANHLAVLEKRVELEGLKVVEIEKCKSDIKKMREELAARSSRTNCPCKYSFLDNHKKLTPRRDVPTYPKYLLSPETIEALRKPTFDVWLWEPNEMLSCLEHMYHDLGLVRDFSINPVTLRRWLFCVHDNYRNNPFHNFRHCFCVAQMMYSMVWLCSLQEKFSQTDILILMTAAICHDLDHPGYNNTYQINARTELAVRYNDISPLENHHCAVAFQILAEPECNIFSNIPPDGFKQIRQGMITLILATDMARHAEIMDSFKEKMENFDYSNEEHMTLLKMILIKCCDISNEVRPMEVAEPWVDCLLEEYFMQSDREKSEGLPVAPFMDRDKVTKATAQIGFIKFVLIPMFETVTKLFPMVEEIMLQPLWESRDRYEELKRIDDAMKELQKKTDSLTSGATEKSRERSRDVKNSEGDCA
row,pIC50,Compound
1,8.77,"C[C@@H]1CN(Cc2cccc(F)c2)C[C@H]1c1nc2c(cnn2C2CCOCC2)c(=O)[nH]1 [Example 89, 6-[(3S,4S)-1-(3-fluorobenzyl)-4-methylpyrrolidin-3-yl]-1-(tetrahydro-2H-pyran-4-yl)-1,5-dihydro-4H-pyrazolo[3,4-d]pyrimidin-4-one]"
2,8.15,"C[C@@H]1CN(Cc2ccc(F)cc2)C[C@H]1c1nc2c(cnn2C2CCOCC2)c(=O)[nH]1 [Example 96, 6-[(3S,4S)-1-(4-fluorobenzyl)-4-methylpyrrolidin-3-yl]-1-(tetrahydro-2H-pyran-4-yl)-1,5-dihydro-4H-pyrazolo[3,4-d]pyrimidin-4-one]"
3,8.10,"C[C@@H]1CN(Cc2ccccc2F)C[C@H]1c1nc2c(cnn2C2CCOCC2)c(=O)[nH]1 [Example 98, 6-[(3S,4S)-1-(2-fluorobenzyl)-4-methylpyrrolidin-3-yl]-1-(tetrahydro-2H-pyran-4-yl)-1,5-dihydro-4H-pyrazolo[3,4-d]pyrimidin-4-one]"
4,8.10,"COc1ccc(CN2C[C@@H](C)[C@H](c3nc4c(cnn4C4CCOCC4)c(=O)[nH]3)C2)cc1 [Example 101, 6-[(3S,4S)-1-(4-methoxybenzyl)-4-methylpyrrolidin-3-yl]-1-(tetrahydro-2H-pyran-4-yl)-1,5-dihydro-4H-pyrazolo[3,4-d]pyrimidin-4-one]"

# Same assay, conditions: human recombinant PDE9 from SF-9 cells; 50 nM [3H]cGMP; room temperature, 30 min; Examples 3-114; read-out: G5678A (U): IC50
row,Compound,pIC50
1,"Cc1nn(C2CCOCC2)c2nc([C@@H]3CN(Cc4ccccc4)C[C@H]3C)[nH]c(=O)c12 [Example 88, 6-[(3S,4S)-1-benzyl-4-methylpyrrolidin-3-yl]-3-methyl-1-(tetrahydro-2H-pyran-4-yl)-1,5-dihydro-4H-pyrazolo[3,4-d]pyrimidin-4-one]",7.75
2,"C[C@@H]1CN(Cc2cc(F)cc(F)c2)C[C@H]1c1nc2c(cnn2C2CCOCC2)c(=O)[nH]1 [Example 90, 6-[(3S,4S)-1-(3,5-difluorobenzyl)-4-methylpyrrolidin-3-yl]-1-(tetrahydro-2H-pyran-4-yl)-1,5-dihydro-4H-pyrazolo[3,4-d]pyrimidin-4-one]",8.85
3,"C[C@@H]1CN(Cc2ccc(C(F)(F)F)cc2)C[C@H]1c1nc2c(cnn2C2CCOCC2)c(=O)[nH]1 [Example 91, 6-{(3S,4S)-4-methyl-1-[4-(trifluoromethyl)benzyl]pyrrolidin-3-yl}-1-(tetrahydro-2H-pyran-4-yl)-1,5-dihydro-4H-pyrazolo[3,4-d]pyrimidin-4-one]",8.17
4,"Cc1nn(C2CCOCC2)c2nc([C@@H]3CN(Cc4cccnc4)C[C@H]3C)[nH]c(=O)c12 [Example 92, 3-methyl-6-[(3S,4S)-4-methyl-1-(pyridin-3-ylmethyl)pyrrolidin-3-yl]-1-(tetrahydro-2H-pyran-4-yl)-1,5-dihydro-4H-pyrazolo[3,4-d]pyrimidin-4-one]",7.63
5,"Cc1ncc(CN2C[C@@H](C)[C@H](c3nc4c(c(C)nn4C4CCOCC4)c(=O)[nH]3)C2)cn1 [Example 93, 3-methyl-6-{(3S,4S)-4-methyl-1-[(2-methylpyrimidin-5-yl)methyl]pyrrolidin-3-yl}-1-(tetrahydro-2H-pyran-4-yl)-1,5-dihydro-4H-pyrazolo[3,4-d]pyrimidin-4-one]",7.61
6,"COc1ccc(CN2C[C@@H](C)[C@H](c3nc4c(c(C)nn4C4CCOCC4)c(=O)[nH]3)C2)cn1 [Example 94, 6-{(3S,4S)-1-[(6-methoxypyridin-3yl)methyl]-4-methylpyrrolidin-3-yl}-3methyl-1-(tetrahyrdro-2H-pyran-4-yl)-1,5-dihydro-4H-pyrazolo[3,4-d]pyrimidin-4-one]",7.85
7,"Cc1cccc(CN2C[C@@H](C)[C@H](c3nc4c(cnn4C4CCOCC4)c(=O)[nH]3)C2)n1 [Example 95, 6-{(3S,4S)-4-methyl-1-[(6-methylpyridin-2-yl)methyl]pyrrolidin-3-yl}-1-(tetrahydro-2H-pyran-4-yl)-1,5-dihydro-4H-pyrazolo[3,4-d]pyrimidin-4-one]",8.41
8,"C[C@@H]1CN(Cc2ccccc2C(F)(F)F)C[C@H]1c1nc2c(cnn2C2CCOCC2)c(=O)[nH]1 [Example 99, 6-{(3S,4S)-4-methyl-1-[2-(trifluoromethyl)benzyl]pyrrolidin-3-yl}-1-(tetrahydro-2H-pyran-4-yl)-1,5-dihydro-4H-pyrazolo[3,4-d]pyrimidin-4-one]",7.89
9,"C[C@@H]1CN(Cc2ccc(F)cc2F)C[C@H]1c1nc2c(cnn2C2CCOCC2)c(=O)[nH]1 [Example 100, 6-[(3S,4S)-1-(2,4-difluorobenzyl)-4-methylpyrrolidin-3-yl]-1-(tetrahydro-2H-pyran-4-yl)-1,5-dihydro-4H-pyrazolo[3,4-d]pyrimidin-4-one]",7.64
10,"C[C@@H]1CN(Cc2ccccc2)C[C@H]1c1nc2c(cnn2C2CCSCC2)c(=O)[nH]1 [Example 102, 6-[(3S,4S)-1-benzyl-4-methylpyrrolidin-3-yl]-1-(tetrahydro-2H-thiopyran-4-yl)-1,5-dihydro-4H-pyrazolo[3,4-d]pyrimidin-4-one]",7.71
11,"COc1ccccc1CN1C[C@@H](C)[C@H](c2nc3c(cnn3C3CCOCC3)c(=O)[nH]2)C1 [Example 103, 6-[(3S,4S)-1-(2-methoxybenzyl)-4-methylpyrrolidin-3-yl]-1-(tetrahydro-2H-pyran-4-yl)-1,5-dihydro-4H-pyrazolo[3,4-d]pyrimidin-4-one]",7.82
12,"COc1cccc(CN2C[C@@H](C)[C@H](c3nc4c(cnn4C4CCOCC4)c(=O)[nH]3)C2)c1 [Example 104, 6-[(3S,4S)-1-(3-methoxybenzyl)-4-methylpyrrolidin-3-yl]-1-(tetrahydro-2H-pyran-4-yl)-1,5-dihydro-4H-pyrazolo[3,4-d]pyrimidin-4-one]",8.40
13,"C[C@@H]1CN(Cc2cccc(C(F)(F)F)c2)C[C@H]1c1nc2c(cnn2C2CCOCC2)c(=O)[nH]1 [Example 105, 6-{(3S,4S)-4-methyl-1-[3-(trifluoromethyl)benzyl]pyrrolidin-3-yl}-1-(tetrahydro-2H-pyran-4-yl)-1,5-dihydro-4H-pyrazolo[3,4-d]pyrimidin-4-one]",8.48

# More lines, now with the values ahead:
row,pIC50,Compound
1,8.09,"C[C@@H]1CN(Cc2c(F)cccc2F)C[C@H]1c1nc2c(cnn2C2CCOCC2)c(=O)[nH]1 [Example 106, 6-[(3S,4S)-1-(26-difluorobenzyl)-4-methylpyrrolidin-3-yl]-1-(tetrahydro-2H-pyran-4-yl)-1,5-dihydro-4H-pyrazolo[3,4-d]pyrimidin-4-one]"
2,8.36,"CC[C@@H]1CN(Cc2cnc(C)cn2)C[C@H]1c1nc2c(cnn2C2CCOCC2)c(=O)[nH]1 [Example 107, 6-{(3S,4S)-4-ethyl-1-[(5-methylpyrazin-2-yl)methyl]pyrrolidin-3-yl}-1-(tetrahydro-2H-pyran-4-yl)-1,5-dihydro-4H-pyrazolo[3,4-d]pyrimidin-4-one]"
3,8.51,"CC[C@@H]1CN(Cc2ccc(OC)nc2)C[C@H]1c1nc2c(cnn2C2CCOCC2)c(=O)[nH]1 [Example 108, 6-{(3S,4S)-4-ethyl-1-[(6-methoxypyridin-3-yl)methyl]pyrrolidin-3-yl}-1-(tetrahydro-2H-pyran-4-yl)-1,5-dihydro-4H-pyrazolo[3,4-d]pyrimidin-4-one]"
4,8.38,"CC[C@@H]1CN(Cc2ccccn2)C[C@H]1c1nc2c(cnn2C2CCOCC2)c(=O)[nH]1 [Example 109, 6-[(3S,4S)-4-ethyl-1-(pyridin-2-ylmethyl)pyrrolidin-3-yl]-1-(tetrahydro-2H-pyran-4-yl)-1,5-dihydro-4H-pyrazolo[3,4-d]pyrimidin-4-one]"
5,8.59,"CC[C@@H]1CN(C(=O)c2cnc3ccccc3n2)C[C@H]1c1nc2c(cnn2C2CCOCC2)c(=O)[nH]1 [Example 110, 6-[(3S,4S)-4-ethyl-1-(quinoxalin-2-ylcarbonyl)pyrrolidin-3-yl]-1-(tetrahydro-2H-pyran-4-yl)-1,5-dihydro-4H-pyrazolo[3,4-d]pyrimidin-4-one]"
6,8.86,"CC[C@@H]1CN(Cc2ccccc2C#N)C[C@H]1c1nc2c(cnn2C2CCOCC2)c(=O)[nH]1 [Example 112, 2-({(3S,4S)-3-ethyl-4-[4-oxo-1-(tetrahydro-2H-pyran-4-yl)-45-dihydro-1H-pyrazolo[3,4-d]pyrimidin-6-yl]pyrrolidin-1-yl}methyl)benzonitrile]"
7,> 9.00,"CC[C@@H]1CN(Cc2cccc(C#N)c2)C[C@H]1c1nc2c(cnn2C2CCOCC2)c(=O)[nH]1 [Example 113, 3-({(3S,4S)-3-ethyl-4-[4-oxo-1-(tetrahydro-2H-pyran-4-yl)-4,5-dihydro-1H-pyrazolo[3,4-d]pyrimidin-6-yl]pyrrolidin-1-yl}methyl)benzonitrile]"
8,8.64,"CC[C@@H]1CN(Cc2ccc(C#N)cc2)C[C@H]1c1nc2c(cnn2C2CCOCC2)c(=O)[nH]1 [Example 114, 4-({(3S,4S)-3-ethyl-4-[4-oxo-1-(tetrahydro-2H-pyran-4-yl)-45-dihydro-1H-pyrazolo[3,4-d]pyrimidin-6-yl]pyrrolidin-1-yl}methyl)benzonitrile]"

# Same assay, conditions: human recombinant PDE9 from SF-9 cells; 50 nM [3H]cGMP; room temperature, 30 min; additional compounds Ex. 115-228; read-out: G5678A (U):IC50
row,Compound,pIC50
1,"Cc1cc(CN2CC(C)C(c3nc4c(cnn4C4CCCC4)c(=O)[nH]3)C2)n(C)n1 (stereo not drawn) [Example 133, 1-cyclopentyl-6-{(3,4-trans)-1-[(1,3-dimethyl-1H-pyrazol-5-yl)methyl]-4-methylpyrrolidin-3-yl}-1,5-dihydro-4H-pyrazolo[3,4-d]pyrimidin-4-one]",7.47
